These results are taken from ChEMBL document CHEMBL1201862, “PubChem BioAssay data set” (2004).

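Cultured in 96-well plates, cells were exposed to test compound for 48 hours across five concentrations. GI50 = concentration required for 50% inhibition of growth.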 The source made the active and inactive calls. No stated cut-off is given here; in the data, active = GI50 up to about 1.1 µM and inactive = higher.

Some test systems named below: ACHN; BT-549; HCC 2998; HCT-116; HT-29; Hs-578T; IGROV-1; MDA-MB-231; MDA-N; MOLT-4; NCI-H226; NCI-H522; NCI/ADR-RES; PC-3; SK-MEL-28; SK-MEL-5; SNB-19; SNB-75; SR; T47D.
What all share (test): DTP human tumour cell line panel, 48 h

As for `O=C1CSC(/C(=C\c2ccc(Cl)cc2)c2nc3ccccc3[nH]2)=N1`, the GI50 (as a rule, the concentration at which growth is held to half of that of the control) was 6.68 µM (inactive) with ACHN; 19.2 µM (inactive) in the assay with BT-549; 3.43 µM (inactive) with HCC 2998; 16 µM (inactive) in the assay on HCT-116; 21.7 µM (inactive) in the assay on HT-29; 18.7 µM (inactive) in the assay with Hs-578T. Moreover, the GI50 in the assay on IGROV-1 was 10.1 µM (inactive); in the assay on MDA-MB-231, 12.7 µM (inactive); in the assay with MDA-N, 18.2 µM (inactive); in the assay with MOLT-4, 51.8 µM (inactive); in the assay with NCI-H226, 6.93 µM (inactive); with NCI-H522, 5.3 µM (inactive). The GI50 is 19.1 µM (inactive) in the assay with NCI/ADR-RES; 19.5 µM (inactive) with PC-3; 15.7 µM (inactive) in the assay on SK-MEL-28; 12.1 µM (inactive) with SK-MEL-5; 19.2 µM (inactive) in the assay on SNB-19; 12.3 µM (inactive) in the assay with SNB-75. Moreover, the GI50 is 36.3 µM (inactive) with SR and 13.9 µM (inactive) in the assay on T47D.

Consider `CC(=O)[C@@]1(O)CC[C@H]2[C@@H]3C[C@H](C)C4=CC(=O)CC[C@]4(C)[C@H]3[C@@H](O)C[C@@]21C`, for which the GI50 is > 100 µM (inactive) with ACHN; > 100 µM (inactive) with BT-549; > 100 µM (inactive) in the assay on HCC 2998; > 100 µM (inactive) with HCT-116; > 100 µM (inactive) in the assay with HT-29; 68.1 µM (inactive) in the assay with Hs-578T. For the same molecule, the GI50 in the assay on IGROV-1 was > 100 µM (inactive); in the assay on MDA-MB-231, > 100 µM (inactive); in the assay with MDA-N, > 100 µM (inactive); in the assay with MOLT-4 it was 46 µM (inactive); in the assay on NCI-H226, > 100 µM (inactive); in the assay with NCI-H522, 73.6 µM (inactive). Besides, the GI50 in the assay on NCI/ADR-RES, with PC-3, in the assay with SK-MEL-28, in the assay with SK-MEL-5, in the assay with SNB-19 and in the assay with SNB-75 was > 100 µM (inactive) throughout. The GI50 in the assay on SR is > 100 µM (inactive); with T47D, 94.2 µM (inactive).

As to `CCOC(=O)Nc1cc2c(c(N)n1)N=C(c1ccc3ccccc3c1)CN2`, the GI50 with ACHN was 0.258 µM (active); in the assay with BT-549 it was 1.75 µM (inactive); in the assay on HCC 2998, 0.215 µM (active); in the assay on HCT-116, 0.0225 µM (active); with HT-29, 0.301 µM (active); in the assay with Hs-578T, 0.0302 µM (active). Further, the concentration for 50% growth inhibition (GI50) in the assay with IGROV-1 is 0.644 µM (active); in the assay on MDA-MB-231, 2.39 µM (inactive); in the assay on MDA-N it was < 0.01 µM (active); with MOLT-4, 0.0226 µM (active); in the assay with NCI-H226, 0.34 µM (active); with NCI-H522, 0.0769 µM (active). The GI50 in the assay on NCI/ADR-RES was 0.0335 µM (active); in the assay on PC-3, 0.0407 µM (active); in the assay on SK-MEL-28, 1.95 µM (inactive); in the assay with SK-MEL-5, < 0.0164 µM (active); in the assay with SNB-19 it was 0.0614 µM (active); in the assay with SNB-75 it was 0.111 µM (active). The GI50 in the assay with SR was 0.0329 µM (active); in the assay with T47D, 22.8 µM (inactive).

For `COCn1c(=O)n(C)c(=O)c2c1nc1c(c(=O)n(C)c(=O)n1COC)[n+]2[O-]`, the GI50 is 5.73 µM (inactive) with ACHN; 10.3 µM (inactive) in the assay with BT-549; 5.33 µM (inactive) in the assay on HCC 2998; 10.6 µM (inactive) in the assay on HCT-116; 18.8 µM (inactive) in the assay on HT-29; 8.55 µM (inactive) in the assay on Hs-578T. The GI50 in the assay with IGROV-1 was 7.36 µM (inactive); in the assay on MDA-MB-231, 15.3 µM (inactive); in the assay with MDA-N, 4.32 µM (inactive); with MOLT-4, 4.19 µM (inactive); in the assay on NCI-H226, 10.1 µM (inactive); in the assay with NCI-H522, 8.97 µM (inactive). In addition, the GI50 with NCI/ADR-RES was 59 µM (inactive); in the assay with PC-3, 5.07 µM (inactive); with SK-MEL-28 it was 35.9 µM (inactive); in the assay on SK-MEL-5 it was 5.83 µM (inactive); in the assay on SNB-19, 13.7 µM (inactive); in the assay with SNB-75 it was 2.75 µM (inactive). Further, the figures for the GI50 in the assay with SR and in the assay with T47D were 3.77 µM (inactive) and 3.13 µM (inactive), respectively.

As to `Cc1c(/N=N/c2ccc([N+](=O)[O-])cc2)nc2scc(-c3ccccc3)n12`, the GI50 in the assay on ACHN is 63.4 µM (inactive); in the assay with BT-549, > 78.7 µM (inactive); in the assay with HCC 2998 it was > 100 µM (inactive); in the assay with HCT-116, > 100 µM (inactive); in the assay on HT-29, > 88.5 µM (inactive); in the assay on Hs-578T, > 78.7 µM (inactive). The GI50 is > 84.1 µM (inactive) in the assay with IGROV-1; > 100 µM (inactive) with MDA-MB-231; > 100 µM (inactive) with MDA-N; 19.6 µM (inactive) in the assay on MOLT-4; > 100 µM (inactive) in the assay with NCI-H226; 46.5 µM (inactive) with NCI-H522. In addition, the GI50 is 73.1 µM (inactive) in the assay with NCI/ADR-RES; 68.5 µM (inactive) with PC-3; > 100 µM (inactive) in the assay on SK-MEL-28; > 100 µM (inactive) in the assay with SK-MEL-5; > 100 µM (inactive) with SNB-19; 44.5 µM (inactive) with SNB-75. The GI50 in the assay with SR is 19.5 µM (inactive); in the assay with T47D it was > 70.8 µM (inactive).

Regarding `O=C1Nc2ccc(S(=O)(=O)O)cc2/C1=C1/Nc2ccc(Br)cc2C1=O`, the GI50 with ACHN, in the assay with BT-549, in the assay on HCC 2998, in the assay with HCT-116, in the assay with HT-29 and with Hs-578T was > 100 µM (inactive) each time. The GI50 in the assay on IGROV-1 was 19.1 µM (inactive); in the assay with MDA-MB-231, > 100 µM (inactive); with MDA-N it was > 100 µM (inactive); in the assay on MOLT-4, > 100 µM (inactive); in the assay with NCI-H226, > 100 µM (inactive); in the assay with NCI-H522, > 100 µM (inactive). Also, the GI50 in the assay on NCI/ADR-RES, with PC-3, in the assay with SK-MEL-28, in the assay on SK-MEL-5, in the assay on SNB-19 and in the assay on SNB-75 was > 100 µM (inactive) in each case. Also, the GI50 with SR and with T47D was > 100 µM (inactive) each time.

With `COCn1c(C)c(C)c2c(=O)oc(N(C)C)nc21`, the GI50 in the assay with ACHN, in the assay on BT-549, in the assay with HCC 2998, in the assay with HCT-116, in the assay with HT-29 and in the assay with Hs-578T was > 100 µM (inactive) throughout. The GI50 in the assay with IGROV-1, in the assay with MDA-MB-231, in the assay on MDA-N, in the assay with MOLT-4, in the assay with NCI-H226 and with NCI-H522 was > 100 µM (inactive) throughout. Further, the GI50 in the assay on NCI/ADR-RES is > 100 µM (inactive); with PC-3, > 100 µM (inactive); with SK-MEL-28, > 100 µM (inactive); with SK-MEL-5, > 100 µM (inactive); with SNB-19 it was 67 µM (inactive); in the assay with SNB-75, > 100 µM (inactive). In addition, the GI50 in the assay with SR and in the assay on T47D was > 100 µM (inactive) each time.

In the case of `Clc1ccc(C(c2ccccc2Cl)C(Cl)Cl)cc1` (stereo not given) [MITOTANE], the GI50 in the assay with ACHN is 14.8 µM (inactive); in the assay with BT-549 it was 1.59 µM (inactive); in the assay with HCC 2998, 12.7 µM (inactive); with HCT-116, 13.2 µM (inactive); in the assay with HT-29 it was 16.8 µM (inactive); with Hs-578T, 3.26 µM (inactive). Besides, the GI50 in the assay with IGROV-1 is 13.9 µM (inactive); with MDA-MB-231 it was 3.39 µM (inactive); with MDA-N it was 18 µM (inactive); in the assay on MOLT-4 it was 14.7 µM (inactive); with NCI-H226, 16.5 µM (inactive); with NCI-H522, 16.7 µM (inactive). Also, the GI50 with NCI/ADR-RES is 15.3 µM (inactive); in the assay with PC-3, 3.39 µM (inactive); in the assay with SK-MEL-28, 18.9 µM (inactive); with SK-MEL-5, 15.8 µM (inactive); with SNB-19, 17.6 µM (inactive); in the assay with SNB-75, 15.2 µM (inactive). Moreover, the values for the GI50 in the assay with SR and in the assay on T47D were 18.7 µM (inactive) and 1.64 µM (inactive), respectively.

As to `CC(=O)OC1CCC2(C)C(=CCC3C4CCC5(OC6CC(C)CN(C(C)=O)C6C5C)C(C)=C4C(=O)C32)C1` (stereo not given), the GI50 with ACHN is 25.5 µM (inactive); in the assay with BT-549, 15 µM (inactive); in the assay on HCC 2998, 13.7 µM (inactive); in the assay with HCT-116, 18.9 µM (inactive); in the assay on HT-29, 19.9 µM (inactive); in the assay on Hs-578T, 16 µM (inactive). Besides, the GI50 was 14.4 µM (inactive) with IGROV-1; 17.2 µM (inactive) in the assay on MDA-MB-231; 23.6 µM (inactive) with MDA-N; 5.53 µM (inactive) with MOLT-4; 22.2 µM (inactive) in the assay on NCI-H226; 14.9 µM (inactive) with NCI-H522. Also, the GI50 is 18 µM (inactive) in the assay with NCI/ADR-RES; 14.3 µM (inactive) in the assay with PC-3; > 100 µM (inactive) in the assay with SK-MEL-28; 10 µM (inactive) in the assay with SK-MEL-5; 13.7 µM (inactive) with SNB-19; 19 µM (inactive) in the assay with SNB-75. Besides, the values for the GI50 in the assay with SR and in the assay with T47D were 16 µM (inactive) and 7.76 µM (inactive), respectively.

In the case of `COC(OC)C1OC(CO)C(n2cc(C)c(=O)[nH]c2=O)C1O` (stereo not given), the GI50 with ACHN, with BT-549, in the assay with HCC 2998, in the assay on HCT-116, in the assay with HT-29 and in the assay with Hs-578T was > 100 µM (inactive) throughout. Besides, the GI50 with IGROV-1, in the assay with MDA-MB-231, with MDA-N, in the assay on MOLT-4, in the assay on NCI-H226 and with NCI-H522 was > 100 µM (inactive) throughout. In addition, the GI50 in the assay with NCI/ADR-RES, with PC-3, in the assay on SK-MEL-28, with SK-MEL-5, in the assay with SNB-19 and in the assay on SNB-75 was > 100 µM (inactive) throughout. The GI50 with SR and with T47D was > 100 µM (inactive) each time.
